Data taken from patent US20250296938A1, “Compounds that Interact with the Ras Superfamily for the Treatment of Cancers, Inflammatory Diseases, Rasopathies, and Fibrotic Disease” (SHY Therapeutics, LLC, priority 2018, published 2025).

Target: Rac-1 (Homo sapiens, UniProt P63000)
Experiment: Ras GTP binding domain inhibition assay (Cy3-GTP/Cy5-GTP competition)
Conditions: with SOS, read-out: Rac-1 + SOS: % inh.
In short: (§1)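 First, His-tagged protein is coated on nickel wells overnight at 4 °C. Next, compound (20 μM single point or serial dilution) is added for 3 h at room temperature, with or without Sos exchange factor in the last hour. Finally, 100 nM labelled GTP binds for 45 min and retained signal is measured.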

Compound	inhibition at 20 µM [%]
COc1c(O)nc(-c2ccccn2)nc1Oc1cnn(C)c1 [drawing 938]	76 to 100
COc1c(O)nc(-c2ccccn2)nc1Oc1ccc2ncccc2c1 [drawing 939]	51 to 75
COCC1CN(c2nc(-c3nccn3C)nc3sc(-c4cccc(OC)c4F)c(-c4ccc(OC)cc4)c23)C1 [drawing 940]	0
COc1ccc(-c2c(-c3cccc(OC)c3F)sc3nc(-c4nccn4C)nc(N4CCC(OC)C4)c23)cc1 (stereo not drawn) [drawing 941]	0
Cc1cn(C)c(-c2nc(O)c3scc(-c4ccccn4)c3n2)n1 [drawing 942]	51 to 75
Cc1cnc(-c2nc(O)c3scc(-c4ccccn4)c3n2)n1C [drawing 943]	51 to 75
O=C(NC1CCC1)c1nc(-c2ccccn2)nc(O)c1O [drawing 944]	76 to 100
COCCN(C)C(=O)c1nc(-c2ccccn2)nc(O)c1O [drawing 945]	51 to 75
CC(C)CNC(=O)c1nc(-c2ccccn2)nc(O)c1O [drawing 946]	76 to 100

Same assay, conditions: without SOS, read-out: Rac-1: % inh.

Compound	inhibition at 20 µM [%]
COc1c(O)nc(-c2ccccn2)nc1Oc1cnn(C)c1 [drawing 938]	76 to 100
COc1c(O)nc(-c2ccccn2)nc1Oc1ccc2ncccc2c1 [drawing 939]	51 to 75
COCC1CN(c2nc(-c3nccn3C)nc3sc(-c4cccc(OC)c4F)c(-c4ccc(OC)cc4)c23)C1 [drawing 940]	0
COc1ccc(-c2c(-c3cccc(OC)c3F)sc3nc(-c4nccn4C)nc(N4CCC(OC)C4)c23)cc1 (stereo not drawn) [drawing 941]	0
Cc1cn(C)c(-c2nc(O)c3scc(-c4ccccn4)c3n2)n1 [drawing 942]	51 to 75
Cc1cnc(-c2nc(O)c3scc(-c4ccccn4)c3n2)n1C [drawing 943]	1 to 25
O=C(NC1CCC1)c1nc(-c2ccccn2)nc(O)c1O [drawing 944]	76 to 100
COCCN(C)C(=O)c1nc(-c2ccccn2)nc(O)c1O [drawing 945]	51 to 75
CC(C)CNC(=O)c1nc(-c2ccccn2)nc(O)c1O [drawing 946]	51 to 75

Target: T1, KRas G12D mutant (Homo sapiens, UniProt P01116, G12D)
T1 construct: fused on or other part: His tag, used for capture on nickel-coated plates
Experiment: as above
Conditions: 20 μM; with SOS (Table 7A); read-out: KRas G12D mutant + SOS: % inh.
In short: (§2)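 Ni-plate immobilised His-Ras, overnight 4 °C; cpd 20 μM (or dilution series for IC50), 1% DMSO, 3 h RT; optional His-Sos […] last hour; Cy3- or Cy5-GTP 100 nM, 45 min RT; 3× wash; bound fluorescence read.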

Compound	inhibition at 20 µM [%]
COCCNC(=O)c1sc2nc(-c3nccn3C)nc(N[C@@H]3CC[C@H](OC)C3)c2c1-c1ccccc1 [drawing 925]	76 to 100
CO[C@H]1CC[C@@H](Nc2nc(-c3nccn3C)nc3sc(C(=O)N4CCCC4)c(-c4ccccc4)c23)C1 [drawing 926]	51 to 75
CO[C@H]1CC[C@@H](Nc2nc(-c3nccn3C)nc3sc(C(=O)N4CCOCC4)c(-c4ccccc4)c23)C1 [drawing 927]	51 to 75

Same assay, conditions: 20 μM; without SOS (Table 7A); read-out: KRas G12D mutant: % inh.

Compound	inhibition at 20 µM [%]
COCCNC(=O)c1sc2nc(-c3nccn3C)nc(N[C@@H]3CC[C@H](OC)C3)c2c1-c1ccccc1 [drawing 925]	76 to 100
CO[C@H]1CC[C@@H](Nc2nc(-c3nccn3C)nc3sc(C(=O)N4CCCC4)c(-c4ccccc4)c23)C1 [drawing 926]	51 to 75
CO[C@H]1CC[C@@H](Nc2nc(-c3nccn3C)nc3sc(C(=O)N4CCOCC4)c(-c4ccccc4)c23)C1 [drawing 927]	76 to 100

Same assay, conditions: at 20 μM, with SOS; read-out: KRas G12D mutant + SOS: % inh.

Compound	inhibition at 20 µM [%]
COc1c(O)nc(-c2ccccn2)nc1Oc1cnn(C)c1 [drawing 938]	51 to 75
COc1c(O)nc(-c2ccccn2)nc1Oc1ccc2ncccc2c1 [drawing 939]	26 to 50
COCC1CN(c2nc(-c3nccn3C)nc3sc(-c4cccc(OC)c4F)c(-c4ccc(OC)cc4)c23)C1 [drawing 940]	51 to 75
COc1ccc(-c2c(-c3cccc(OC)c3F)sc3nc(-c4nccn4C)nc(N4CCC(OC)C4)c23)cc1 (stereo not drawn) [drawing 941]	51 to 75
Cc1cn(C)c(-c2nc(O)c3scc(-c4ccccn4)c3n2)n1 [drawing 942]	26 to 50
Cc1cnc(-c2nc(O)c3scc(-c4ccccn4)c3n2)n1C [drawing 943]	1 to 25
O=C(NC1CCC1)c1nc(-c2ccccn2)nc(O)c1O [drawing 944]	26 to 50
COCCN(C)C(=O)c1nc(-c2ccccn2)nc(O)c1O [drawing 945]	1 to 25
CC(C)CNC(=O)c1nc(-c2ccccn2)nc(O)c1O [drawing 946]	1 to 25

Same assay, conditions: at 20 μM, without SOS; read-out: KRas G12D mutant: % inh.

Compound	inhibition at 20 µM [%]
COc1c(O)nc(-c2ccccn2)nc1Oc1cnn(C)c1 [drawing 938]	51 to 75
COc1c(O)nc(-c2ccccn2)nc1Oc1ccc2ncccc2c1 [drawing 939]	51 to 75
COCC1CN(c2nc(-c3nccn3C)nc3sc(-c4cccc(OC)c4F)c(-c4ccc(OC)cc4)c23)C1 [drawing 940]	51 to 75
COc1ccc(-c2c(-c3cccc(OC)c3F)sc3nc(-c4nccn4C)nc(N4CCC(OC)C4)c23)cc1 (stereo not drawn) [drawing 941]	51 to 75
Cc1cn(C)c(-c2nc(O)c3scc(-c4ccccn4)c3n2)n1 [drawing 942]	76 to 100
Cc1cnc(-c2nc(O)c3scc(-c4ccccn4)c3n2)n1C [drawing 943]	51 to 75
O=C(NC1CCC1)c1nc(-c2ccccn2)nc(O)c1O [drawing 944]	51 to 75
COCCN(C)C(=O)c1nc(-c2ccccn2)nc(O)c1O [drawing 945]	1 to 25
CC(C)CNC(=O)c1nc(-c2ccccn2)nc(O)c1O [drawing 946]	51 to 75

Target: Rho-A (Homo sapiens, UniProt P61586)
Experiment: as above
Conditions: with SOS, read-out: Rho-A + SOS: % inh.
In short: as §1

Compound	inhibition at 20 µM [%]
COc1c(O)nc(-c2ccccn2)nc1Oc1cnn(C)c1 [drawing 938]	51 to 75
COc1c(O)nc(-c2ccccn2)nc1Oc1ccc2ncccc2c1 [drawing 939]	76 to 100
COCC1CN(c2nc(-c3nccn3C)nc3sc(-c4cccc(OC)c4F)c(-c4ccc(OC)cc4)c23)C1 [drawing 940]	51 to 75
COc1ccc(-c2c(-c3cccc(OC)c3F)sc3nc(-c4nccn4C)nc(N4CCC(OC)C4)c23)cc1 (stereo not drawn) [drawing 941]	51 to 75
Cc1cn(C)c(-c2nc(O)c3scc(-c4ccccn4)c3n2)n1 [drawing 942]	76 to 100
Cc1cnc(-c2nc(O)c3scc(-c4ccccn4)c3n2)n1C [drawing 943]	51 to 75
O=C(NC1CCC1)c1nc(-c2ccccn2)nc(O)c1O [drawing 944]	76 to 100
COCCN(C)C(=O)c1nc(-c2ccccn2)nc(O)c1O [drawing 945]	26 to 50
CC(C)CNC(=O)c1nc(-c2ccccn2)nc(O)c1O [drawing 946]	51 to 75

Same assay, conditions: without SOS, read-out: Rho-A: % inh.

Compound	inhibition at 20 µM [%]
COc1c(O)nc(-c2ccccn2)nc1Oc1cnn(C)c1 [drawing 938]	51 to 75
COc1c(O)nc(-c2ccccn2)nc1Oc1ccc2ncccc2c1 [drawing 939]	76 to 100
COCC1CN(c2nc(-c3nccn3C)nc3sc(-c4cccc(OC)c4F)c(-c4ccc(OC)cc4)c23)C1 [drawing 940]	51 to 75
COc1ccc(-c2c(-c3cccc(OC)c3F)sc3nc(-c4nccn4C)nc(N4CCC(OC)C4)c23)cc1 (stereo not drawn) [drawing 941]	51 to 75
Cc1cn(C)c(-c2nc(O)c3scc(-c4ccccn4)c3n2)n1 [drawing 942]	76 to 100
Cc1cnc(-c2nc(O)c3scc(-c4ccccn4)c3n2)n1C [drawing 943]	51 to 75
O=C(NC1CCC1)c1nc(-c2ccccn2)nc(O)c1O [drawing 944]	51 to 75
COCCN(C)C(=O)c1nc(-c2ccccn2)nc(O)c1O [drawing 945]	26 to 50
CC(C)CNC(=O)c1nc(-c2ccccn2)nc(O)c1O [drawing 946]	51 to 75

Tested on: KRas wild type
Experiment: as above
Set-up: species or system human
Conditions: 20 μM; with SOS (Table 7A)
In short: as §2

Compound	KRas wild type + SOS: % inh.
COCCNC(=O)c1sc2nc(-c3nccn3C)nc(N[C@@H]3CC[C@H](OC)C3)c2c1-c1ccccc1 [drawing 925]	D (76-100% inhibition)
CO[C@H]1CC[C@@H](Nc2nc(-c3nccn3C)nc3sc(C(=O)N4CCCC4)c(-c4ccccc4)c23)C1 [drawing 926]	C (51-75% inhibition)
CO[C@H]1CC[C@@H](Nc2nc(-c3nccn3C)nc3sc(C(=O)N4CCOCC4)c(-c4ccccc4)c23)C1 [drawing 927]	C (51-75% inhibition)

Same assay, conditions: 20 μM; without SOS (Table 7A)

Compound	KRas wild type % inh.
COCCNC(=O)c1sc2nc(-c3nccn3C)nc(N[C@@H]3CC[C@H](OC)C3)c2c1-c1ccccc1 [drawing 925]	D (76-100% inhibition)
CO[C@H]1CC[C@@H](Nc2nc(-c3nccn3C)nc3sc(C(=O)N4CCCC4)c(-c4ccccc4)c23)C1 [drawing 926]	C (51-75% inhibition)
CO[C@H]1CC[C@@H](Nc2nc(-c3nccn3C)nc3sc(C(=O)N4CCOCC4)c(-c4ccccc4)c23)C1 [drawing 927]	D (76-100% inhibition)

Tested on: KRas Q61H mutant
Experiment: as above
Set-up: species or system human
Conditions: 20 μM; with SOS (Table 7A)
In short: as §2

Compound	KRas Q61H mutant + SOS: % inh.
COCCNC(=O)c1sc2nc(-c3nccn3C)nc(N[C@@H]3CC[C@H](OC)C3)c2c1-c1ccccc1 [drawing 925]	D (76-100% inhibition)
CO[C@H]1CC[C@@H](Nc2nc(-c3nccn3C)nc3sc(C(=O)N4CCCC4)c(-c4ccccc4)c23)C1 [drawing 926]	D (76-100% inhibition)
CO[C@H]1CC[C@@H](Nc2nc(-c3nccn3C)nc3sc(C(=O)N4CCOCC4)c(-c4ccccc4)c23)C1 [drawing 927]	D (76-100% inhibition)

Same assay, conditions: 20 μM; without SOS (Table 7A)

Compound	KRas Q61H mutant: % inh.
COCCNC(=O)c1sc2nc(-c3nccn3C)nc(N[C@@H]3CC[C@H](OC)C3)c2c1-c1ccccc1 [drawing 925]	D (76-100% inhibition)
CO[C@H]1CC[C@@H](Nc2nc(-c3nccn3C)nc3sc(C(=O)N4CCCC4)c(-c4ccccc4)c23)C1 [drawing 926]	D (76-100% inhibition)
CO[C@H]1CC[C@@H](Nc2nc(-c3nccn3C)nc3sc(C(=O)N4CCOCC4)c(-c4ccccc4)c23)C1 [drawing 927]	D (76-100% inhibition)

Tested on: KRas G12C mutant
Experiment: as above
Set-up: species or system human
Conditions: 20 μM; with SOS (Table 7A)
In short: as §2

Compound	KRas G12C mutant + SOS: % inh.
COCCNC(=O)c1sc2nc(-c3nccn3C)nc(N[C@@H]3CC[C@H](OC)C3)c2c1-c1ccccc1 [drawing 925]	D (76-100% inhibition)
CO[C@H]1CC[C@@H](Nc2nc(-c3nccn3C)nc3sc(C(=O)N4CCCC4)c(-c4ccccc4)c23)C1 [drawing 926]	D (76-100% inhibition)
CO[C@H]1CC[C@@H](Nc2nc(-c3nccn3C)nc3sc(C(=O)N4CCOCC4)c(-c4ccccc4)c23)C1 [drawing 927]	C (51-75% inhibition)

Same assay, conditions: 20 μM; without SOS (Table 7A)

Compound	KRas G12C mutant: % inh.
COCCNC(=O)c1sc2nc(-c3nccn3C)nc(N[C@@H]3CC[C@H](OC)C3)c2c1-c1ccccc1 [drawing 925]	D (76-100% inhibition)
CO[C@H]1CC[C@@H](Nc2nc(-c3nccn3C)nc3sc(C(=O)N4CCCC4)c(-c4ccccc4)c23)C1 [drawing 926]	D (76-100% inhibition)
CO[C@H]1CC[C@@H](Nc2nc(-c3nccn3C)nc3sc(C(=O)N4CCOCC4)c(-c4ccccc4)c23)C1 [drawing 927]	C (51-75% inhibition)
